These results are taken from publication PMC5634595, “Properties of halogenated and sulfonated porphyrins relevant for the selection of photosensitizers in anticancer and antimicrobial therapies” (PLoS ONE, 2017).

The target in series [1] is HSA (Homo sapiens, UniProt P02768). In words: Binding to HSA by fluorescence quenching (Stern-Volmer, Scatchard). As for the experimental part: The binding of the PS to HSA was studied by spectrofluorometry at room temperature. An aqueous (phosphate buffer saline, PBS) solution of HSA was titrated with varying concentrations of the respective porphyrin solutions. HSA was excited at 295 nm and fluorescence was recorded between 300 nm and 400 nm. The systematic lowering of HSA fluorescence with increasing photosensitizer concentrations was noted and used in the determination of the binding constants and the number of binding sites on HSA according to Scatchard equation. The changes in HSA fluorescence intensity were related to porphyrin concentrations by the Stern-Volmer relationship. The binding constant (Kb) of PS to lipoproteins was also determined using the spectroscopic titration method. The sets of steady-state emission spectra of PBS solutions with different concentrations of HDL and LDL, to which the porphyrin (5 μM) was added were measured. The fluorescence intensity of the dye increased upon its partitioning into the lipoproteins. To obtain Kb, F versus [L] data were plotted and fitted to by a nonlinear regression routine.

Series [2] concerns A549 cells. The series can be described thus: Dark cytotoxicity, MTT. Type of series: cell-based, human. The note with it: A549, 100 μM, 24 h. As for the experimental part:
The studies were performed on human lung adenocarcinoma (A549), murine colon carcinoma (CT26) and murine endothelial/vascular epithelium (2H11) cell lines. A549, CT26 and 2H11 cells were grown in full-strength DMEM with 4.5 g/L glucose, L-glutamine, sodium pyruvate and 3.7 g/L NaHCO3 (BioTech) with addition of 10% fetal bovine serum (BioTech, Poland) and supplemented by antibiotics (penicillin/streptomycin). Before the experiments, the cells were washed with PBS, removed by trypsinization, then re-plated into microplate (or culture flask) with appropriate cells density and maintained in a humidified atmosphere at 37 °C and 5% CO2.
MTT cytotoxicity assay (which determines the mitochondrial activity), based upon the ability of living cells to reduce (3-(4,5-dimethylthiazol-2-yl)2,5-diphenyl tetrazolium bromide (MTT) into formazan was used to assess photosensitizer-mediated cytotoxicity. Two identical 96-well plates with A549, CT26 or 2H11 cell cultures seeded on 96-plate microplate (10^4 per well) were used for each experiment. When the cells were attached to the plates, PS solution in growth medium (DMSO<0.5%) at concentrations between 0.1 to 100 μM was added to the culture. Treated cultures were incubated for optimal time (estimated experimentally) at 37°C in the dark. […] Data were expressed as mean absorbance value of six samples and standard error of the mean.

Series [3] deals with E. coli (K12). In words: Photodynamic inactivation of microorganisms, CFU. It is filed as cell-based. The note with it: PDI 10 J/cm^2, 420±20 nm, concentration not given. As for the experimental part:
(§1) The microorganisms used in PDI were: S. aureus (8325–4), E. faecalis (ATCC29212), E. coli (K12), P. aeruginosa (ATCC19660), S. marcescens (ATCC14756) and C. albicans (DAY286). The planctonic bacteria cells were cultured in brain heart infusion broth (Sigma-Aldrich) and LB Broth/Lennox (BioShop Lab Science Products) in an orbital incubator (37°C, 130 rpm), until the optical density reached 0.5, which corresponds to approximately 10^7 CFU per mL. The fungal yeasts were cultured in YPD Broth (BioShop) with overnight aeration at 30°C to reach ca. 10^6 CFU/mL. For PDI experiments cell suspensions of bacteria or fungal yeasts were incubated with various concentrations of the porphyrins at pH 7.4 (PBS) for 1 h in the dark at room temperature. Aliquots (1 mL) were transferred to a 12-well plate and illuminated with a blue light. We used blue-LED array (420±20 nm) to deliver a light dose of 10 J/cm^2 (measured with a power meter). Cells treated with photosensitizers in the dark were incubated covered with aluminum foil for the same time as the PDI groups (1 h). After illumination (or dark incubation) samples were shaken, diluted in PBS, mixed and plated (LB agar). Aliquots were taken from each well to determine the CFU value. Plates were streaked in triplicate and incubated for 12–36 h at 30 °C (for fungal yeasts) or 37 °C (for bacteria) in the dark to allow colony formation.

The test system of series [4] is P. aeruginosa (ATCC19660). In words: Photodynamic inactivation of microorganisms, CFU. It is filed as cell-based. To be noted: PDI 10 J/cm^2, 420±20 nm, concentration not given. As for the experimental part: as §1
The subject of series [5] is S. aureus (8325–4). The series can be described thus: Photodynamic inactivation of microorganisms, CFU. Type of series: cell-based. To be noted: 20 μM, 10 min irradiation (10 J/cm^2, 420±20 nm). As for the experimental part:
as §1

HSA, sequence (P02768 25-609): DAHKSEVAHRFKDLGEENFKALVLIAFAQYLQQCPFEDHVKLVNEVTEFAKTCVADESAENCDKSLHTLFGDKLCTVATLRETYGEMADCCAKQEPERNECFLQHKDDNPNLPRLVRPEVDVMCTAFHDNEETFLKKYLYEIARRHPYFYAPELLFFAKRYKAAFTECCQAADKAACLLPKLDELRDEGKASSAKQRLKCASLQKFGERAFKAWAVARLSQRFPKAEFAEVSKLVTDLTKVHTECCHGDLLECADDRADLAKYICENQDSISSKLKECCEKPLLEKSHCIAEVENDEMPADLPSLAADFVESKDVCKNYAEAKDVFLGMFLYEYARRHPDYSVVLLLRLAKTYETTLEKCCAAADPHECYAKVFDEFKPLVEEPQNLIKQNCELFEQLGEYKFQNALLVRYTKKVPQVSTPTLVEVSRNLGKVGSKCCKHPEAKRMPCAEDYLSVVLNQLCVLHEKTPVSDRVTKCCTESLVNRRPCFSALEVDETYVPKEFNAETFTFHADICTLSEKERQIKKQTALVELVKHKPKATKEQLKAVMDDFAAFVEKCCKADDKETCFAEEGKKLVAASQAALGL

In the case of `O=S(=O)(O)c1ccc(F)c(-c2c3nc(c(-c4c(F)ccc(S(=O)(=O)O)c4F)c4ccc([nH]4)c(-c4c(F)ccc(S(=O)(=O)O)c4F)c4nc(c(-c5c(F)ccc(S(=O)(=O)O)c5F)c5ccc2[nH]5)C=C4)C=C3)c1F` [F2POH, 5,10,15,20-tetrakis(2,6-difluoro-3-sulfophenyl)porphyrin], the “KSV (Stern-Volmer constant), HSA” value in series [1] (HSA fluorescence quenching, PBS, room temperature) is 2.24 10^5M^-1. Moreover, the “n (number of binding sites), HSA” value in series [1] (Scatchard analysis) came out at 1. For the same molecule, the “Cytotoxicity in the dark” value in series [2] is given as 25%. Further, the Decrease in survival in series [3] is recorded as 1.5–2 logs. Moreover, the “Decrease in survival / bacteria CFU killing” value in series [4] was 1.5–2 logs. Moreover, the “Reduction in colony forming units (CFU)” value in series [5] came to 6 logs.
